Assay results reported in patent publication US10457709B2, “Antimicrobial peptides, their variants and uses” (priority 2015, dated 2019).
Square brackets hold non-standard residues; d marks the D form. Peptide text beside a SMILES is read from it.

Tests used:
[1] = test system: Acinetobacter baumannii clinical strains; assay type: cell-based; settings: clinical strains
Description: (§1) Minimum inhibition concentrations (MICs) were determined against Escherichia coli (ATCC 25922), Staphylococcus aureus (ATCC 25923), Klebsiella pneumoniae (ATCC 10031) and Pseudomonas aeruginosa (ATCC 27853). Also clinical strains of E. coli, K. pneumoniae, E. cloacae, P. aeruginosa, Serratia marcescens, Proteus mirabilis, S. pneumoniae, Acinetobacter baumannii, A. johnsonii and S. aureus were used for MICs assays. Additionally, clinical strains of yeast including Candida albicans, C. glabrata, C. parapsilosis and C. quillermondiae were used. The susceptibility of these microorganisms to Chain peptides were determined using micro broth dilution assay. Colonies of the respective microorganism from Muller Hinton (MH) agar plates incubated overnight were suspended in MH broth media and final concentration of microorganism was adjusted to 5.0×10^5 cfu/ml. An aliquot of 10 μl of each Chain peptide, or gentamicin, tetracycline as reference antibiotics were added in differing concentrations along with 90 μl of bacterial suspension to 96 well polypropylene plates and incubated at 37° C. for 20 to 24 hours. Concentrations of Chain peptides and reference antibiotics ranged from 0.125 to 128 μg/ml and the MICs were recorded as the lowest concentration with no visual growth of bacteria. Similarly, antifungal MICs were tested in Potato dextrose broth.
(§2) Clinical strains of yeasts including Candida albicans, C. glabrata, C. parapsilosis and C. quillermondiae were also tested with the 12 Chain peptides. The minimum inhibitory concentration (MICs) varied between these peptides and are presented in Tables 4a, 4b, 4c and 5a, 5b, 5c. Peptides Chain 105, 201 and 308 are broad spectrum antimicrobials with MICs between 0.5-32 μg/ml against all the bacteria and yeasts tested, except Serratia marcescens and Proteus mirabilis, against which the MICs were between 64-128 μg/ml. Peptide Chain 306 has narrow spectrum activity against E. coli at 1 μg/ml and for the rest of the bacterial strains at >32 μg/ml (FIG. 10c).

[2] = test system: Enterobacter cloacae clinical strains; assay type: cell-based; settings: clinical strains
Description: as §1, §2

[3] = test system: Proteus mirabilis clinical strains; assay type: cell-based; settings: clinical strains
Description: as §1, §2

[4] = test system: Serratia marcescens clinical strains; assay type: cell-based; settings: clinical strains
Description: as §1, §2

[5] = test system: Staphylococcus aureus clinical strains; assay type: cell-based; settings: clinical strains
Description: as §1, §2

[6] = test system: Streptococcus pneumoniae clinical strains; assay type: cell-based; settings: clinical strains
Description: as §1, §2

[7] = test system: Candida albicans clinical strains; experiment: MIC, clinical yeast strains; assay type: cell-based; design: unit: μg/ml
Description: as §1, §2

[8] = test system: C. glabrata clinical strains; experiment: MIC, clinical yeast strains; assay type: cell-based, Candida glabrata; design: unit: µg/ml
Description: as §1, §2

[9] = test system: C. parapsilosis clinical strains; experiment: MIC, clinical yeast strains; assay type: cell-based, Candida parapsilosis; design: unit: µg/ml
Description: as §1, §2

[10] = test system: C. quillermondiae clinical strains; experiment: MIC, clinical yeast strains; assay type: cell-based, Candida quillermondiae; design: unit: μg/ml; settings: C. quillermondiae clinical yeast strain 1
Description: as §1, §2

[11] = test system: Acinetobacter johnsonii clinical strains; assay type: cell-based; settings: clinical strain 1; D-form peptides; MH broth-cation adjusted, 0.02% BSA, 0.2% acetic acid
Description: as §1, §2

[12] = test system: Escherichia coli clinical strains; assay type: cell-based; settings: clinical strains
Description: as §1, §2

[13] = test system: Klebsiella pneumoniae clinical strains; assay type: cell-based; settings: clinical strains
Description: as §1, §2

[14] = test system: Pseudomonas aeruginosa clinical strains; assay type: cell-based; settings: clinical strains
Description: as §1, §2

[15] = test system: all the bacteria and yeasts tested; assay type: cell-based
Description: as §1, §2

[16] = Candida albicans clinical yeast strain 1
[17] = Candida albicans clinical yeast strain 2
[18] = Candida albicans clinical yeast strain 3
[19] = Candida albicans clinical yeast strain 4
[20] = Candida albicans clinical yeast strain 5
[21] = C. glabrata clinical yeast strain 1
[22] = C. glabrata clinical yeast strain 2
[23] = C. glabrata clinical yeast strain 3
[24] = C. glabrata clinical yeast strain 4
[25] = C. parapsilosis clinical yeast strain 1
[26] = C. parapsilosis clinical yeast strain 2
[27] = C. parapsilosis clinical yeast strain 3
[28] = C. parapsilosis clinical yeast strain 4

CC[C@@H](C)[C@@H](NC(=O)[C@@H](CCSC)NC(=O)[C@@H](C)NC(=O)[C@@H](CCCNC(=N)N)NC(=O)[C@@H](Cc1c[nH]c2ccccc12)NC(=O)[C@@H](CCCCN)NC(=O)[C@H](N)CCCNC(=N)N)C(=O)N[C@H](CCCNC(=N)N)C(=O)N[C@H](CC(C)C)C(=O)N[C@H](Cc1c[nH]cn1)C(=O)N[C@H](C)C(=O)N[C@H](CCCCN)C(=O)N[C@H](CCCNC(=N)N)C(=O)N[C@H](CC(C)C)C(=O)N[C@H](CCCNC(=N)N)C(=O)N[C@H](CCCCN)C(=O)O [Chain104D] (H-[dR][dK][dW][dR][dA][dM][dI][dR][dL][dH][dA][dK][dR][dL][dR][dK]-OH)
4: Minimum inhibitory concentration [9, 25] | Minimum inhibitory concentration [9, 26] | Minimum inhibitory concentration [9, 27] | Minimum inhibitory concentration [10]
128 mg/L: MIC, Proteus mirabilis strain 3 [3] | MIC, Serratia marcescens strain 5 [4]
16: Minimum inhibitory concentration [8, 24]
2: Minimum inhibitory concentration [9, 28]
8 mg/L: MIC, Acinetobacter baumannii strain 2 [1] | MIC, Acinetobacter baumannii strain 3 [1] | MIC, Acinetobacter baumannii strain 5 [1] | MIC, Enterobacter cloacae strain 3 [2] | MIC, Acinetobacter johnsonii strain 1 [11] | MIC, Klebsiella pneumoniae strain 1 [13] | MIC, Klebsiella pneumoniae strain 3 [13]
16 mg/L: MIC, Acinetobacter baumannii strain 1 [1] | MIC, Klebsiella pneumoniae strain 4 [13]
1 mg/L: MIC, Streptococcus pneumoniae strain 3 [6] | MIC, Streptococcus pneumoniae strain 5 [6] | MIC, Pseudomonas aeruginosa strain 5 [14]
2 mg/L: MIC, Enterobacter cloacae strain 5 [2] | MIC, Staphylococcus aureus strain 2 [5] | MIC, Staphylococcus aureus strain 4 [5] | MIC, Streptococcus pneumoniae strain 2 [6] | MIC, Pseudomonas aeruginosa strain 2 [14] | MIC, Pseudomonas aeruginosa strain 4 [14]
32 mg/L: MIC, Proteus mirabilis strain 2 [3]
>128 mg/L: MIC, Proteus mirabilis strain 1 [3] | MIC, Proteus mirabilis strain 4 [3] | MIC, Proteus mirabilis strain 5 [3] | MIC, Serratia marcescens strain 1 [4] | MIC, Serratia marcescens strain 2 [4] | MIC, Serratia marcescens strain 3 [4] | MIC, Serratia marcescens strain 4 [4]
4 mg/L: MIC, Acinetobacter baumannii strain 4 [1] | MIC, Enterobacter cloacae strain 1 [2] | MIC, Enterobacter cloacae strain 2 [2] | MIC, Enterobacter cloacae strain 4 [2] | MIC, Staphylococcus aureus strain 1 [5] | MIC, Staphylococcus aureus strain 3 [5] | MIC, Staphylococcus aureus strain 5 [5] | MIC, Streptococcus pneumoniae strain 1 [6] | MIC, Streptococcus pneumoniae strain 4 [6] | MIC, Escherichia coli strain 1 [12] | MIC, Escherichia coli strain 2 [12] | MIC, Escherichia coli strain 3 [12] | MIC, Escherichia coli strain 4 [12] | MIC, Escherichia coli strain 5 [12] | MIC, Klebsiella pneumoniae strain 2 [13] | MIC, Klebsiella pneumoniae strain 5 [13] | MIC, Pseudomonas aeruginosa strain 1 [14] | MIC, Pseudomonas aeruginosa strain 3 [14]
8: Minimum inhibitory concentration [7, 16] | Minimum inhibitory concentration [7, 17] | Minimum inhibitory concentration [7, 18] | Minimum inhibitory concentration [7, 19] | Minimum inhibitory concentration [7, 20] | Minimum inhibitory concentration [8, 21] | Minimum inhibitory concentration [8, 22] | Minimum inhibitory concentration [8, 23]

CC[C@@H](C)[C@@H](NC(=O)[C@@H](CCSC)NC(=O)[C@@H](C)NC(=O)[C@@H](CCCNC(=N)N)NC(=O)[C@@H](Cc1c[nH]c2ccccc12)NC(=O)[C@@H](CCCCN)NC(=O)[C@H](N)CCCNC(=N)N)C(=O)N[C@H](CCCNC(=N)N)C(=O)N[C@H](CC(C)C)C(=O)N[C@H](Cc1c[nH]cn1)C(=O)N[C@H](C)C(=O)N[C@H](CCCCN)C(=O)N[C@H](Cc1c[nH]c2ccccc12)C(=O)N[C@H](CC(C)C)C(=O)N[C@H](CCCNC(=N)N)C(=O)N[C@H](CCCCN)C(=O)O [Chain105D] (H-[dR][dK][dW][dR][dA][dM][dI][dR][dL][dH][dA][dK][dW][dL][dR][dK]-OH)
64 to 128 µg/mL: MICs against Proteus mirabilis [3] | MICs against Serratia marcescens [4]
32: Minimum inhibitory concentration [7, 16] | Minimum inhibitory concentration [7, 18] | Minimum inhibitory concentration [7, 19] | Minimum inhibitory concentration [7, 20] | Minimum inhibitory concentration [8, 24]
4 mg/L: MIC, Acinetobacter baumannii strain 1 [1] | MIC, Acinetobacter baumannii strain 2 [1] | MIC, Acinetobacter baumannii strain 3 [1] | MIC, Acinetobacter baumannii strain 5 [1] | MIC, Streptococcus pneumoniae strain 1 [6] | MIC, Streptococcus pneumoniae strain 4 [6] | MIC, Acinetobacter johnsonii strain 1 [11] | MIC, Escherichia coli strain 2 [12] | MIC, Klebsiella pneumoniae strain 1 [13] | MIC, Klebsiella pneumoniae strain 3 [13] | MIC, Klebsiella pneumoniae strain 4 [13] | MIC, Pseudomonas aeruginosa strain 1 [14] | MIC, Pseudomonas aeruginosa strain 2 [14] | MIC, Pseudomonas aeruginosa strain 3 [14] | MIC, Pseudomonas aeruginosa strain 4 [14] | MIC, Pseudomonas aeruginosa strain 5 [14]
4: Minimum inhibitory concentration [9, 28]
1 mg/L: MIC, Enterobacter cloacae strain 5 [2] | MIC, Escherichia coli strain 1 [12] | MIC, Escherichia coli strain 3 [12] | MIC, Escherichia coli strain 4 [12]
32 mg/L: MIC, Proteus mirabilis strain 2 [3]
0.5 to 32 µg/mL: MICs against all the bacteria and yeasts tested [15]
16: Minimum inhibitory concentration [7, 17] | Minimum inhibitory concentration [8, 21] | Minimum inhibitory concentration [8, 22]
2 mg/L: MIC, Acinetobacter baumannii strain 4 [1] | MIC, Enterobacter cloacae strain 1 [2] | MIC, Enterobacter cloacae strain 2 [2] | MIC, Enterobacter cloacae strain 3 [2] | MIC, Enterobacter cloacae strain 4 [2] | MIC, Staphylococcus aureus strain 1 [5] | MIC, Staphylococcus aureus strain 2 [5] | MIC, Staphylococcus aureus strain 3 [5] | MIC, Staphylococcus aureus strain 4 [5] | MIC, Staphylococcus aureus strain 5 [5] | MIC, Streptococcus pneumoniae strain 2 [6] | MIC, Streptococcus pneumoniae strain 3 [6] | MIC, Streptococcus pneumoniae strain 5 [6] | MIC, Escherichia coli strain 5 [12] | MIC, Klebsiella pneumoniae strain 2 [13] | MIC, Klebsiella pneumoniae strain 5 [13]
8: Minimum inhibitory concentration [8, 23] | Minimum inhibitory concentration [9, 25] | Minimum inhibitory concentration [9, 26] | Minimum inhibitory concentration [9, 27] | Minimum inhibitory concentration [10]
>128 mg/L: MIC, Proteus mirabilis strain 1 [3] | MIC, Proteus mirabilis strain 4 [3] | MIC, Proteus mirabilis strain 5 [3]
64 mg/L: MIC, Proteus mirabilis strain 3 [3]
128 mg/L: MIC, Serratia marcescens strain 1 [4] | MIC, Serratia marcescens strain 2 [4] | MIC, Serratia marcescens strain 3 [4] | MIC, Serratia marcescens strain 4 [4] | MIC, Serratia marcescens strain 5 [4]
